The subject of the experiment is performance anxiety in the context of public speaking. The experiment can be described thus: Open clinical trial: oral doses taken before public speaking, subject self-reports. It is filed as in vivo, human. To be noted: Subject 2, 40 mg propranolol HCl alone. From the text:
Subjects were selected based on their history of experiencing performance anxiety in the context of public speaking. Subjects received oral doses of the present composition, as described below, at various times prior to speaking engagements. The parameters assessed included but were not limited to the following: tremor of voice and hands, urinary and/or fecal urgency, tachycardia, anxiety, and side effects (e.g., dry mouth).

For the compound `CC(C)NCC(O)COc1cccc2ccccc12.Cl` (racemic) [propranolol HCl, (RS)-1-(isopropylamino)-3-(1-naphthyloxy)propan-2-ol], under “ninety minutes prior”, the fecal urgency result is listed as “did report fecal urgency”; the quality of presentation entry was “less colorful and confident presentation”; the voice tremor entry is recorded as “no tachycardia or voice tremor”. In addition, where the note is “ninety minutes prior to public speaking”, the tachycardia result was “no tachycardia”.

These data come from patent US20110218215A1, “Compositions and Methods for Treating Social Anxiety” (priority 2010, published 2011).
